A short description of data set [1]: Molar enthalpy of transition or fusion. As to conditions: Crystal; DSC.
For data set [2] the following is noted: Crystal; DTA.

Numbers after ± are expanded uncertainties.

With `CC1=C(O)C(=O)C(C)O1` (configuration not stated) [4-hydroxy-2,5-dimethyl-3(2H)-furanone], the “Molar enthalpy of transition or fusion” value in data set [1] amounted to 4.61 ± 0.12 kcal/mol. Besides, the Normal melting temperature in data set [2] turned out to be 80.8 ± 1.6 °C.
